Test results published in BigSolDB 2.1.

O=C(O)c1cc(C(=O)O)cc(C(=O)O)c1
Conditions	solubility (mole fraction)
in ethanol, 302.89 K	0.0207
in ethanol, 309.85 K	0.0228
in ethanol, 312.83 K	0.0237
in ethanol, 319.06 K	0.0257
in ethanol, 324.5 K	0.0277
in ethylene glycol, 305.44 K	0.00826
in ethylene glycol, 310.56 K	0.00951
in ethylene glycol, 315.85 K	0.0112
in ethylene glycol, 321.33 K	0.0131
in ethylene glycol, 326.03 K	0.0147
in ethylene glycol, 331.84 K	0.0178
in isobutanol, 306 K	0.0078
in isobutanol, 310.65 K	0.0086
in isobutanol, 314.94 K	0.00926
in isobutanol, 319.87 K	0.0104
in isobutanol, 324.75 K	0.0117
in isobutanol, 330.58 K	0.0132
in isopropanol, 305.77 K	0.00706
in isopropanol, 311.02 K	0.00798
in isopropanol, 315.67 K	0.00869
in isopropanol, 320.61 K	0.00949
in isopropanol, 324.58 K	0.0104
in isopropanol, 330.39 K	0.0117
in methanol, 298.21 K	0.012
in methanol, 304.67 K	0.0138
in methanol, 308.78 K	0.0151
in methanol, 313.97 K	0.0169
in water, 301.05 K	0.00015
in water, 305.47 K	0.00019
in water, 309.8 K	0.00025
in water, 315.22 K	0.00033
in water, 320.56 K	0.00044
in water, 325.11 K	0.00055
in water, 329.42 K	0.00069
